This passage reports IC50 results from US20100056524A1, “Compound” (priority 2008, published 2010).

For the experiment, the target named is T1, TBK1 (Homo sapiens, UniProt Q9UHD2).
T1 construct: All protein kinases were of human origin and encoded full length proteins, unless indicated otherwise; His6; made in house; host or cells: insect Sf21 cells
T1 sequence (Q9UHD2 1-729): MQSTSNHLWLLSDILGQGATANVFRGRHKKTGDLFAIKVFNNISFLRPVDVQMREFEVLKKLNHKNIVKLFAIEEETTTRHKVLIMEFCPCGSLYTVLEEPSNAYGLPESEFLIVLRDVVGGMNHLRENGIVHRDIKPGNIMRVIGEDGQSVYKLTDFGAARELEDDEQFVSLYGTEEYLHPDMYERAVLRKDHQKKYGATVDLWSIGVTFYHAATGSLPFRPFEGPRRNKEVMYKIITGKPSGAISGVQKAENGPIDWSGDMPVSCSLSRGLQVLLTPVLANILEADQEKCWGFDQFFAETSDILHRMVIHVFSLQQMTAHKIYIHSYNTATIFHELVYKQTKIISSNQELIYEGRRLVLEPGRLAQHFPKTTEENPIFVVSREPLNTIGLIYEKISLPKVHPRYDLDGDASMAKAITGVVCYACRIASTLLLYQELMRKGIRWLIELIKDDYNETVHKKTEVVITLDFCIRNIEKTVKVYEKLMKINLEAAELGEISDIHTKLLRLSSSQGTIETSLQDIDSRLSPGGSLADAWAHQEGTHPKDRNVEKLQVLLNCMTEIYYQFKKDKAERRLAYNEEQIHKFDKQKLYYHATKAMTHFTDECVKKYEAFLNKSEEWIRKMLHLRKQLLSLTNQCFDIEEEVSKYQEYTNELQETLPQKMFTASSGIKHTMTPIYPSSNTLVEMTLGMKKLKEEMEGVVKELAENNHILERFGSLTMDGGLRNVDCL
Briefly: TBK1 protein kinase assay ([γ-33P]ATP, P81 filterplates). The class given is biochemical. As to conditions: 50 μM ATP; read-out: Potency (TBK1 IC50 potency score). An excerpt:
All protein kinases were of human origin and encoded full length proteins, unless indicated otherwise. They were either expressed as glutathione S-transferase (GST) fusion proteins in Escherichia Coli or as hexahistidine (His6)-tagged proteins in insect Sf21 cells. GST fusion proteins were purified by affinity chromatography on glutathione-Sepharose, and His6-tagged proteins on nickel/nitriloacetate-agarose. The procedures for expressing some of the protein kinases used herein have been detailed previously.^8,9 The following sections outline the DNA vectors synthesised and the procedures used to express and purifying protein kinases that have not been reported previously.
The following kinases were expressed in Sf21 cells: Aurora B and Aurora C, extra-cellular signal-regulated kinase 8 (ERK8), microtubule affinity regulating kinase 3 (MARK3), protein kinase Bα[118-480][S473D], protein kinase Bβ (PKBβ[120-481][S474D], 3-phosphoinositide-dependent protein kinase-1 [52-556]
Assays were performed for 30 min using Multidrop Micro reagent dispensers (Thermo Electron Corporation, Waltham, Mass. 02454, USA) in a 96-well format. The concentration of magnesium acetate in the assays was 10 mM and the [γ-33P] ATP (800 cpm/pmol) was used at 5, 20 or 50 μM as indicated, in order to be at or below the Km for ATP for each enzyme. Protein kinases assayed at 5 μM ATP were: —ERK1, ERK8, PKBα, MARK3, Aurora C. Protein kinases assayed at 20 μM ATP were: —JNK1, PDK1, CHK1, CHK2, CDK2 and Aurora B. Protein kinases assayed at 50 μM ATP were: —MNK2, IKKepsilon and TBK1.
The assays were initiated with MgATP, stopped by addition of 5 μl of 0.5 M orthophosphoric acid and spotted on to P81 filterplates using a unifilter harvester (PerkinElmer, Boston, Mass. 02118, USA). The IC50 values of inhibitors were determined after carrying out assays at 10 different concentrations of each compound.
ERK1 and ERK8 were both assayed against myelin basic protein (MBP, 0.33 mg/ml). MARK3 was assayed against the peptide […] (300 μM), MNK2 against the eIF4E protein (0.5 mg/ml). PKBβ was assayed against the peptide […] (30 μM). TBK1 were assayed against ([…]) (300 μM). The substrates used for other protein kinases were described previously.^8,9
Unless stated otherwise, enzymes were diluted in 50 mM Tris/HCl pH 7.5, 0.1 mM EGTA, 1 mg/ml BSA, 0.1% (v/v) 2-mercaptoethanol and assayed in 50 mM Tris/HCl pH 7.5, 0.1 mM EGTA, 0.1% (v/v) 2-mercaptoethanol.

Where a name gives a salt, the structure may show the parent alone.

The IC50 is the concentration needed to halve the response being measured. On to `O=C(NCCCNc1nc(Nc2cccc(NC(=O)N3CCCC3)c2)ncc1C1CC1)C1CCC1` [Example 144, Pyrrolidine-1-carboxylic acid (3-{4-[3-(cyclobutanecarbonyl-amino)-propylamino]-5-cyclopropyl-pyrimidin-2-ylamino}-phenyl)-amide], for which the IC50 is less than 100 nM.

For `O=C(NCCCNc1nc(Nc2cccc(Cn3cncn3)c2)ncc1C1CC1)C1CCC1` [Example 83, Cyclobutanecarboxylic acid {3-[5-cyclopropyl-2-(3-1,2,4-triazol-1-ylmethyl-phenylamino)-pyrimidin-4-ylamino]-propyl}-amide], the IC50 is less than 100 nM.

For `O=C(NCCCNc1nc(Nc2ccc(N3CCOCC3)nc2)ncc1C1CC1)c1cccs1` [Example 54, Thiophene-2-carboxylic acid {3-[5-cyclopropyl-2-(6-morpholin-4-yl-pyridin-3-ylamino)-pyrimidin-4-ylamino]-propyl}-amide], the IC50 is less than 100 nM.

As to `O=C(NCCCNc1nc(Nc2ccc(-c3cnco3)nc2)ncc1C1CC1)C1CCC1` [Example 185, Cyclobutanecarboxylic acid {3-[5-cyclopropyl-2-(6-oxazol-5-yl-pyridin-3-ylamino)-pyrimidin-4-ylamino]-propyl}-amide], the IC50 was less than 100 nM.

In the case of `O=C(NCCCNc1nc(Nc2cccc(F)c2)ncc1C1CC1)c1ccco1` [Example 5, Furan-2-carboxylic acid{3-[5-cyclopropyl-2-(3-fluoro-phenylamino)-pyrimidin-4-ylamino]-propyl}-amide trifluoroacetic acid salt], the IC50 fell in the range of 100 to 1000 nM.

As for `O=C(NCCCNc1nc(Nc2cccc(O)c2)ncc1C1CC1)c1cccs1` [Example 29, Thiophene-2-carboxylic acid {3-[5-cyclopropyl-2-(3-hydroxy-phenylamino)-pyrimidin-4-ylamino]-propyl}-amide Trifluoroacetic acid salt], the IC50 lay within 1000 to 10000 nM.

On to `O=C(NCCCNc1nc(Nc2cncc(F)c2)ncc1C1CC1)C1CCC1` [Example 64, Cyclobutanecarboxylic acid {3-[5-cyclopropyl-2-(5-fluoro-pyridin-3-ylamino)-pyrimidin-4-ylamino]-propyl}-amide], for which the IC50 is less than 100 nM.

`CN1CCN(c2ccc(Nc3ncc(C4CC4)c(NCCCNC(=O)C4CCC4)n3)cc2)CC1` [Example 165, Cyclobutanecarboxylic acid (3-{5-cyclopropyl-2-[4-(4-methyl-piperazin-1-yl)-phenylamino]-pyrimidin-4-ylamino}-propyl)-amide]: the IC50 is less than 100 nM.

On to `O=C(C1CCC1)N1CC(CNc2nc(Nc3cccc(F)c3)ncc2C2CC2)C1` [Example 162, Cyclobutyl-(3-{[5-cyclopropyl-2-(3-fluoro-phenylamino)-pyrimidin-4-ylamino]-methyl}-azetidin-1-yl)-methanone], for which the IC50 fell in the range of 100 to 1000 nM.

For `Cn1c(=O)n(C)c2cc(Nc3ncc(C4CC4)c(NCCCNC(=O)C4CCC4)n3)ccc21` [Example 179, Cyclobutanecarboxylic acid {3-[5-cyclopropyl-2-(1,3-dimethyl-2-oxo-2,3-dihydro-1H-benzimidazol-5-ylamino)-pyrimidin-4-ylamino]-propyl}-amide], the IC50 is less than 100 nM.

`O=C(NCCCNc1nc(Nc2ccc3[nH]ncc3c2)ncc1C1CC1)C1CCC1` [Example 130, Cyclobutanecarboxylic acid {3-[5-cyclopropyl-2-(1H-indazol-5-ylamino)-pyrimidin-4-ylamino]-propyl}-amide]: the IC50 is less than 100 nM.

As to `CN1CCN(Cc2cccc(Nc3ncc(C4CC4)c(NCCCNC(=O)C4CCC4)n3)c2)CC1` [Example 122, Cyclobutanecarboxylic acid (3-{5-cyclopropyl-2-[3-(4-methyl-piperazin-1-ylmethyl)-phenylamino]-pyrimidin-4-ylamino}-propyl)-amide], the IC50 is less than 100 nM.

For `O=C(NCCCNc1nc(Nc2ccc(CCO)cc2)ncc1C1CC1)C1CCC1` [Example 177, Cyclobutanecarboxylic acid (3-{5-cyclopropyl-2-[4-(2-hydroxy-ethyl)-phenylamino]-pyrimidin-4-ylamino}-propyl)-amide], the IC50 was less than 100 nM.
